Assay results: ChEMBL document CHEMBL1133889, “Discovery and SAR of org 24598-a selective glycine uptake inhibitor” (Bioorg Med Chem Lett, 2001)

Assays:
[1] = target: T1, Sodium- and chloride-dependent glycine transporter 1 (Homo sapiens, UniProt P48067); assay: Inhibition of [3H]glycine uptake using CHO cells transfected with GlyT-1b transporter; format: cell-based
T1 sequence (P48067 whole entry): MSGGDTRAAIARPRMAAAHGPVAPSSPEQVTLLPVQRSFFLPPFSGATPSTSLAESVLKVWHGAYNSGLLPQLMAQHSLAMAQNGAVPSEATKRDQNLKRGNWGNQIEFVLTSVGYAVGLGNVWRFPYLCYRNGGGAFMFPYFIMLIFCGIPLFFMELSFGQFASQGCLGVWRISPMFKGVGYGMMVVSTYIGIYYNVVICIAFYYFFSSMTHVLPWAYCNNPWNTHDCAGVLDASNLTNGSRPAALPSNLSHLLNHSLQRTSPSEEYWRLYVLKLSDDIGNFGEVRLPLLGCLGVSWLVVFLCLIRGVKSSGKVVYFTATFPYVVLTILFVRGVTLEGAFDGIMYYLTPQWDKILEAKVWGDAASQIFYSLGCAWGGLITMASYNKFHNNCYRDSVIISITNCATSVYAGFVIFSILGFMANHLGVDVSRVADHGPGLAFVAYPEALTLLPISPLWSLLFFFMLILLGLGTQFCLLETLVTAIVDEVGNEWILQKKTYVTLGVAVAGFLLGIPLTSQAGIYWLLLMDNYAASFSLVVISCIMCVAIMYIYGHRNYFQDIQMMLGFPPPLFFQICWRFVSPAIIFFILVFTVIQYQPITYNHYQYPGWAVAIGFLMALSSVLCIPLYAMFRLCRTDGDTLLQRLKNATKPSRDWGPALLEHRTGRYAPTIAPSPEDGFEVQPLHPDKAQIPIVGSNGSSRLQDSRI

[2] = target: T2, 5-hydroxytryptamine receptor 1A (Rattus norvegicus, UniProt P19327); assay: Binding affinity of compound towards 5-hydroxytryptamine 1A receptor was determined
T2 sequence (P19327 whole entry): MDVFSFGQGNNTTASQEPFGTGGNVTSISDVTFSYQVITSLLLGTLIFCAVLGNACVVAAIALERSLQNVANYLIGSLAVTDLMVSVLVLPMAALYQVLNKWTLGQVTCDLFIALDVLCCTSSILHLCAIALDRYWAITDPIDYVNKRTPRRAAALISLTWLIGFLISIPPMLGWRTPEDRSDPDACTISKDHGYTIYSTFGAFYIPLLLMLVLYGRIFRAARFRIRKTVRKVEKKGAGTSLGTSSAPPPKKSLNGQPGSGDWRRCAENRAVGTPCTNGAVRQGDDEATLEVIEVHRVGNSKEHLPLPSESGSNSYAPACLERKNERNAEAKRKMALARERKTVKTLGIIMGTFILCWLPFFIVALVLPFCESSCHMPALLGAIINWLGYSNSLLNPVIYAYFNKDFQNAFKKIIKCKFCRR

[3] = target: T3, 5-hydroxytryptamine receptor 2C (Rattus norvegicus, UniProt P08909); assay: Binding affinity of compound towards serotonin 5-hydroxytryptamine 2C receptor was determined
T3 sequence (P08909 whole entry): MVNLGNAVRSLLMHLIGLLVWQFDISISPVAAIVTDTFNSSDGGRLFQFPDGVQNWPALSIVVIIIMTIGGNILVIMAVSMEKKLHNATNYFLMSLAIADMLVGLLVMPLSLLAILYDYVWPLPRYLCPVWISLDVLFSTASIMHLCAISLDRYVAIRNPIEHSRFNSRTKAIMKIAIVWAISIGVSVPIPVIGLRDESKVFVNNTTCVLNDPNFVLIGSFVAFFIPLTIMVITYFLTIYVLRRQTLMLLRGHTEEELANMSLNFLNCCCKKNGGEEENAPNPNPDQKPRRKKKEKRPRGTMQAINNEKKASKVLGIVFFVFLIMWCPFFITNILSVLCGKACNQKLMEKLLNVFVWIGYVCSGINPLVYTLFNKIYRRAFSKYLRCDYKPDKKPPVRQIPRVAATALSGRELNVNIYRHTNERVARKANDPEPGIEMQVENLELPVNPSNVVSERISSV

[4] = target: 5-hydroxytryptamine receptor 2A (Rattus norvegicus, UniProt P14842); assay: Binding affinity of compound towards serotonin 5-hydroxytryptamine 2A receptor was determined
5-hydroxytryptamine receptor 2A, sequence (P14842 whole entry): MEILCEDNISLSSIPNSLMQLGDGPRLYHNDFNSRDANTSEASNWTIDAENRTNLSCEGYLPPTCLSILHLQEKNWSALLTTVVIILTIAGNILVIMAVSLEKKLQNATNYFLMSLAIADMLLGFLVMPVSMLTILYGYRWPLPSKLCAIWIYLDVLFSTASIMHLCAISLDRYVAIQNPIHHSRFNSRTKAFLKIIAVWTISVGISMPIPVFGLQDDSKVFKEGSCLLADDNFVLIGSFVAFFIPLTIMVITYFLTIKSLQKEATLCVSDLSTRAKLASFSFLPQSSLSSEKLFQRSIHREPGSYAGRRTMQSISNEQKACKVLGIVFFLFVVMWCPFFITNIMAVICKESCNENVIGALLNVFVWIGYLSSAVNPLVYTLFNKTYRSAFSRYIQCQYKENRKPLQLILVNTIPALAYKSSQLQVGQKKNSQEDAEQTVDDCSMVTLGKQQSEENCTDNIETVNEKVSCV

[5] = target: 5-hydroxytryptamine receptor 7 (Rattus norvegicus, UniProt P32305); assay: Binding affinity of compound towards serotonin 5-hydroxytryptamine 7 receptor was determined
5-hydroxytryptamine receptor 7, sequence (P32305 whole entry): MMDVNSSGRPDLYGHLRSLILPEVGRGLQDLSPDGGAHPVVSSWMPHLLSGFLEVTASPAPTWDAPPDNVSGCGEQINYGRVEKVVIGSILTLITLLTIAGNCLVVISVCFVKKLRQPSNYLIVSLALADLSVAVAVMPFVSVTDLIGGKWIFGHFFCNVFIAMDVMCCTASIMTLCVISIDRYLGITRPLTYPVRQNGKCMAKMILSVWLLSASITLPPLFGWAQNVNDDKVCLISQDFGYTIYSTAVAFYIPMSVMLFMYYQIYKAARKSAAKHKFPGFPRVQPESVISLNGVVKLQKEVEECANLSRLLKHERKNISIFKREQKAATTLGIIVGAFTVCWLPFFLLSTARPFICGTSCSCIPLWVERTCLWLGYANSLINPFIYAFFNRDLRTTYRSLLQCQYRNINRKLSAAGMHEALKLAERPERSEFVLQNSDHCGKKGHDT

[6] = target: 5-hydroxytryptamine receptor 6 (Rattus norvegicus, UniProt P31388); assay: Binding affinity of compound towards serotonin 5-hydroxytryptamine 6 receptor was determined
5-hydroxytryptamine receptor 6, sequence (P31388 whole entry): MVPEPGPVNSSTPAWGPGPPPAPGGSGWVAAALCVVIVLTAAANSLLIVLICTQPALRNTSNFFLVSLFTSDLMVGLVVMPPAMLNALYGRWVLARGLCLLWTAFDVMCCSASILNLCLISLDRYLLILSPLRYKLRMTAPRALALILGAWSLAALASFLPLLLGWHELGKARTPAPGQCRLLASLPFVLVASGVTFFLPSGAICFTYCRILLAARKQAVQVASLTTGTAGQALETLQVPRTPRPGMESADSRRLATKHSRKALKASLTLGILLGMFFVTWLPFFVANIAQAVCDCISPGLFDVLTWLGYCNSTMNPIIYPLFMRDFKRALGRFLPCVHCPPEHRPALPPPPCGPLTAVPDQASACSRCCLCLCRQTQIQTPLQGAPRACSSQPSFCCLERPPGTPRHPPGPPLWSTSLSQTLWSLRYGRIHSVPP

[7] = target: T4, Alpha-2C adrenergic receptor (Homo sapiens, UniProt P18825); assay: Binding affinity of compound towards Alpha-2C adrenergic receptor was determined
T4 sequence (P18825 whole entry): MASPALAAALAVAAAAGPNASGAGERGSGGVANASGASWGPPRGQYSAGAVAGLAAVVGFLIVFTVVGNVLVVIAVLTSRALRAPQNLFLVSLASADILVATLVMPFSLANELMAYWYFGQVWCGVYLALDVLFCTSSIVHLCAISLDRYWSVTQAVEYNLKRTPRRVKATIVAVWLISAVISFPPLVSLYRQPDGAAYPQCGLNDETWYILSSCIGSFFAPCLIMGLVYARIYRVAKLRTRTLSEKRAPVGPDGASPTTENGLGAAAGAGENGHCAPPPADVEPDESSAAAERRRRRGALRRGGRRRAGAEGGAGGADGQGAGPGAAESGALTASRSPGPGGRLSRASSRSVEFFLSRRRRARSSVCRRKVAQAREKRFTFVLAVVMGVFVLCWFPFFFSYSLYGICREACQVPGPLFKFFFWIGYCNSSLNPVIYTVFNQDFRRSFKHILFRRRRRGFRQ

[8] = target: T5, Alpha-1A adrenergic receptor (Homo sapiens, UniProt P35348); assay: Binding affinity of compound towards Binding affinity towards Alpha-1A adrenergic receptor was determined
T5 sequence (P35348 whole entry): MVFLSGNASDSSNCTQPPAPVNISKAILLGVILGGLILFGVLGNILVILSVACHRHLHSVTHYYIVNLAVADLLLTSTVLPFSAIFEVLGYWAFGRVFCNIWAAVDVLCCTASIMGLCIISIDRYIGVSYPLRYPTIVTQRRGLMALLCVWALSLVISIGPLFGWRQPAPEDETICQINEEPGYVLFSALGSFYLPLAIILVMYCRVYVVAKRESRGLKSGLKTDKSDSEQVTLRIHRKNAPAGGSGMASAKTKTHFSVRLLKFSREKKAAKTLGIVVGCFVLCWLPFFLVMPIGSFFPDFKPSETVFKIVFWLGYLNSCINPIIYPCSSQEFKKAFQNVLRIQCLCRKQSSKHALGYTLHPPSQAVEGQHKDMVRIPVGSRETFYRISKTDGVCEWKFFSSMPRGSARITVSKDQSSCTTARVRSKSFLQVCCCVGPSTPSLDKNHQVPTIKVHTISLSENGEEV

[9] = target: Beta-2 adrenergic receptor (Homo sapiens, UniProt P07550); assay: Binding affinity of compound towards Beta-2 adrenergic receptor was determined
Beta-2 adrenergic receptor, sequence (P07550 whole entry): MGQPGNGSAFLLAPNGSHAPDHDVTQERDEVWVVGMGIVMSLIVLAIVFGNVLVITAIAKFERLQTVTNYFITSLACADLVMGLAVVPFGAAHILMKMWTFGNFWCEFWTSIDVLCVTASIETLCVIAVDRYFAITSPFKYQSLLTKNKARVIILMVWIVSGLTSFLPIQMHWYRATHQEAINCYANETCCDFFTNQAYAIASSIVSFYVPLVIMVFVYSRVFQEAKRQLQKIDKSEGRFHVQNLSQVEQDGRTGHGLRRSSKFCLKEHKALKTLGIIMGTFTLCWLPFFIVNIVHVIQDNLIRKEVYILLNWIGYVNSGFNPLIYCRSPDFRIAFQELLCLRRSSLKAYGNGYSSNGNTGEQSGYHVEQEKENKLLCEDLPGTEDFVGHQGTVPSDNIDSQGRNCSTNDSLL

D(4) dopamine receptor = target: T6, D(4) dopamine receptor (Rattus norvegicus, UniProt P30729); assay: Binding affinity of compound towards Dopamine receptor D4 was determined
T6 sequence (P30729 whole entry): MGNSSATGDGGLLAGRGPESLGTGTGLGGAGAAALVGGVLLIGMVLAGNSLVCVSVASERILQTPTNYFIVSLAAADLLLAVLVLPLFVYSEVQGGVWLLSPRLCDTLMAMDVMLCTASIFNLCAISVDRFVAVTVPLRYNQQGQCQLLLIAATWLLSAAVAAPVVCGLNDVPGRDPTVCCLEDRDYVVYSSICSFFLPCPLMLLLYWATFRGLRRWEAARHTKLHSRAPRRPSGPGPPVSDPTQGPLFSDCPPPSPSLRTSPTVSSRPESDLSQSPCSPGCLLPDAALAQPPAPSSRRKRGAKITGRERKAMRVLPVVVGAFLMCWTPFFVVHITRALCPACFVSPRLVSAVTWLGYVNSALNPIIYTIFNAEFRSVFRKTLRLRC

Glutamate NMDA receptor = assay: Binding affinity to NMDA glycine co-agonist site with [3H]-MDL- 105,519 as radioligand in rat brain membrane; format: cell membranes
Rattus norvegicus [10] = species on record: Rattus norvegicus; assay: Inhibition of [3H]- dopamine uptake in rat brain; format: functional, organism-based
Rattus norvegicus [11] = species on record: Rattus norvegicus; assay: Inhibition of [3H]- noradrenaline uptake in rat brain; format: functional, organism-based
Rattus norvegicus [12] = species on record: Rattus norvegicus; assay: Inhibition of [3H]- serotonin uptake in rat brain; format: functional, organism-based
[13] = target: Beta-1 adrenergic receptor (Homo sapiens, UniProt P08588); assay: Binding affinity of compound towards Beta-1 adrenergic receptor was determined
Beta-1 adrenergic receptor, sequence (P08588 whole entry): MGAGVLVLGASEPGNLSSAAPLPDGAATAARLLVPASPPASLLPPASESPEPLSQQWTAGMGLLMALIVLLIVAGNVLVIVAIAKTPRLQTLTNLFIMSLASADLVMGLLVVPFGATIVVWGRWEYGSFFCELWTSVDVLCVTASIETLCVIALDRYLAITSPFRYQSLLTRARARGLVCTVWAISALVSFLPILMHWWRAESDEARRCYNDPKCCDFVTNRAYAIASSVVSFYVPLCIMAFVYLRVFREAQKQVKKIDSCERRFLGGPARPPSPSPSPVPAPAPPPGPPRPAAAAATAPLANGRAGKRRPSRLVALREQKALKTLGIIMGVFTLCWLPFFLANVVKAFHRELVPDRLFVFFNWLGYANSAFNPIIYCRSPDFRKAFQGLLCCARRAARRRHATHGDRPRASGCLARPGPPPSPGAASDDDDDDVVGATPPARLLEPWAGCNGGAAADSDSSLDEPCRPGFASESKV

D(2) dopamine receptor = D(2) dopamine receptor (Rattus norvegicus, UniProt P61169); assay: Binding affinity of compound towards Dopamine receptor D2S was determined
D(2) dopamine receptor, sequence (P61169 whole entry): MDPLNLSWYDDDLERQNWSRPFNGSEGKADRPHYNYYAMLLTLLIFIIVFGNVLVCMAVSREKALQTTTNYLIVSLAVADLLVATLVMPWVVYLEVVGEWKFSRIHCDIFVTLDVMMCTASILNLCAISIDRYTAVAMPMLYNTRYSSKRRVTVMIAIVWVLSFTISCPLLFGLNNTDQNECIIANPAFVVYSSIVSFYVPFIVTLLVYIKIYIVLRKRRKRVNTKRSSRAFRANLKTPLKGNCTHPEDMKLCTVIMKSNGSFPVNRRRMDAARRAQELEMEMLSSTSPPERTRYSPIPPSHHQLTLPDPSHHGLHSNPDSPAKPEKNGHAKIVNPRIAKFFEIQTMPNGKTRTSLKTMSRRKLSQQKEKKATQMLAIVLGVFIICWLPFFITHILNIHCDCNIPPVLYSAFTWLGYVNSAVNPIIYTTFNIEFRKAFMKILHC

[14] = target: T7, Alpha-1B adrenergic receptor (Homo sapiens, UniProt P35368); assay: The compound was tested for the binding affinity towards Alpha-1B adrenergic receptor
T7 sequence (P35368 whole entry): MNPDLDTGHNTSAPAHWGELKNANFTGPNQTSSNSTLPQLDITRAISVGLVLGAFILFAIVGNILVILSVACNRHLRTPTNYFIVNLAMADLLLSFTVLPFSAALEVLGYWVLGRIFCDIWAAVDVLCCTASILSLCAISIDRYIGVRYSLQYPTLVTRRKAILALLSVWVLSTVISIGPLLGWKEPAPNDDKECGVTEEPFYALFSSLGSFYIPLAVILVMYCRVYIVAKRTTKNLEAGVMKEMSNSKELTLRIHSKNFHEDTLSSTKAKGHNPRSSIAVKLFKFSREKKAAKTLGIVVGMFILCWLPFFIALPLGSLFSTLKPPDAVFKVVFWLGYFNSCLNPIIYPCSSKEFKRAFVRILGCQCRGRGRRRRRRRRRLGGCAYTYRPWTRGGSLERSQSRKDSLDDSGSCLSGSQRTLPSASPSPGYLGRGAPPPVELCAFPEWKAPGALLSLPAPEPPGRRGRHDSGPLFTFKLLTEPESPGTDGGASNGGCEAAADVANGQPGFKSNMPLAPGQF

Rattus norvegicus [15] = species on record: Rattus norvegicus; assay: Inhibition of [3H]- GABA uptake in rat brain; format: functional, organism-based

IC50 [1] [µM]	SMILES	also measured
11.7	CN(CC[C@H](Oc1ccc(C(C)(C)C)cc1)c1ccccc1)CC(=O)O	–
0.126	CN(CC[C@@H](Oc1ccc(C(F)(F)F)cc1)c1ccccc1)CC(=O)[O-].[Li+]	Ki [2]: > 10 µM; Ki [3]: > 10 µM; Ki [4]: > 10 µM; Ki [5]: > 10 µM; Ki [6]: > 10 µM; Ki [7]: > 10 µM; Ki [8]: > 10 µM; Ki [9]: > 10 µM; Ki (D(4) dopamine receptor): > 10 µM; Log Ki (Glutamate NMDA receptor): > -4; IC50 (Rattus norvegicus [10]): > 100 µM; IC50 (Rattus norvegicus [11]): > 100 µM; IC50 (Rattus norvegicus [12]): 50.1 µM; Ki [13]: > 10 µM; Ki (D(2) dopamine receptor): > 10 µM; Ki [14]: > 10 µM; IC50 (Rattus norvegicus [15]): > 100 µM
5.01	CCN(CCC(Oc1ccc(C(F)(F)F)cc1)c1ccccc1)CC(=O)O (stereo not given)	–
0.501	CN(CCC(Oc1ccc(Cl)c(Cl)c1)c1ccccc1)CC(=O)O (stereo not given)	–
0.447	CN(CC[C@@H](Oc1ccc(C(C)(C)C)cc1)c1ccccc1)CC(=O)O	–
20	COc1ccccc1OC(CCN(C)CC(=O)O)c1ccccc1 (stereo not given)	–
100	CN(CCC(Oc1ccc(S(C)(=O)=O)cc1)c1ccccc1)CC(=O)O (stereo not given)	–
2.51	CN(CCC(Oc1cccc(C(F)(F)F)c1)c1ccccc1)CC(=O)O (stereo not given)	–
100	CN(CCCC(=O)O)CCC(Oc1ccc(C(F)(F)F)cc1)c1ccccc1 (stereo not given)	–
12.6	CN(CCC(Oc1ccccc1Cl)c1ccccc1)CC(=O)O (stereo not given)	–
0.1	CN(CCC(Oc1ccc(C(F)(F)F)cc1)c1ccc(Cl)cc1)CC(=O)O (stereo not given)	–
0.151	CN(CC[C@@H](Oc1ccc(-c2ccccc2)cc1)c1ccccc1)CC(=O)O	–
2.63	CN(CC[C@H](Oc1ccc(C(F)(F)F)cc1)c1ccccc1)CC(=O)O	–
3.98	COc1ccc(OC(CCN(C)CC(=O)O)c2ccccc2)cc1 (stereo not given)	–
31.6	CN(CCC(=O)O)CCC(Oc1ccc(C(F)(F)F)cc1)c1ccccc1 (stereo not given)	–
0.977	CN(CC[C@H](Oc1ccc(-c2ccccc2)cc1)c1ccccc1)CC(=O)O	–
0.251	CN(CCC(Oc1ccc(C(F)(F)F)cc1)c1ccc(F)cc1)CC(=O)O (stereo not given)	–
0.398	CN(CCC(Oc1ccc(Cl)c(C(F)(F)F)c1)c1ccccc1)CC(=O)O (stereo not given)	–
0.316	CN(CCC(Oc1ccc(C(F)(F)F)cc1)c1ccccc1)CC(=O)O (stereo not given)	–
0.501	COc1ccc(C(CCN(C)CC(=O)O)Oc2ccc(C(F)(F)F)cc2)cc1 (stereo not given)	–
1	CN(CCC(Cc1ccc(C(F)(F)F)cc1)c1ccccc1)CC(=O)O (stereo not given)	–
1.26	CN(CCC(Oc1ccc(Cl)cc1)c1ccccc1)CC(=O)O (stereo not given)	–
2.51	Cc1ccc(OC(CCN(C)CC(=O)O)c2ccccc2)cc1 (stereo not given)	–
